3 molecules from paper PMC12052975, “A key residue of the extracellular gate provides quality control contributing to ABCG substrate specificity” (Nature Communications, 2025) can be followed below.

Numbering of substitutions follows the chain as printed.

Common to all, as to assay type: cell-based
The target in test [1] is T1, ABCG36/PDR8/PEN3 (Arabidopsis thaliana, UniProt Q9XIE2, L704S).
T1 construct: full length, 35S:ABCG36-GFP (GFP tag kept), Agrobacterium-transfected Nicotiana benthamiana mesophyll protoplasts or microsomes; full-size PDR-type ABC transporter
T1 sequence (Q9XIE2 1-1469 L704S): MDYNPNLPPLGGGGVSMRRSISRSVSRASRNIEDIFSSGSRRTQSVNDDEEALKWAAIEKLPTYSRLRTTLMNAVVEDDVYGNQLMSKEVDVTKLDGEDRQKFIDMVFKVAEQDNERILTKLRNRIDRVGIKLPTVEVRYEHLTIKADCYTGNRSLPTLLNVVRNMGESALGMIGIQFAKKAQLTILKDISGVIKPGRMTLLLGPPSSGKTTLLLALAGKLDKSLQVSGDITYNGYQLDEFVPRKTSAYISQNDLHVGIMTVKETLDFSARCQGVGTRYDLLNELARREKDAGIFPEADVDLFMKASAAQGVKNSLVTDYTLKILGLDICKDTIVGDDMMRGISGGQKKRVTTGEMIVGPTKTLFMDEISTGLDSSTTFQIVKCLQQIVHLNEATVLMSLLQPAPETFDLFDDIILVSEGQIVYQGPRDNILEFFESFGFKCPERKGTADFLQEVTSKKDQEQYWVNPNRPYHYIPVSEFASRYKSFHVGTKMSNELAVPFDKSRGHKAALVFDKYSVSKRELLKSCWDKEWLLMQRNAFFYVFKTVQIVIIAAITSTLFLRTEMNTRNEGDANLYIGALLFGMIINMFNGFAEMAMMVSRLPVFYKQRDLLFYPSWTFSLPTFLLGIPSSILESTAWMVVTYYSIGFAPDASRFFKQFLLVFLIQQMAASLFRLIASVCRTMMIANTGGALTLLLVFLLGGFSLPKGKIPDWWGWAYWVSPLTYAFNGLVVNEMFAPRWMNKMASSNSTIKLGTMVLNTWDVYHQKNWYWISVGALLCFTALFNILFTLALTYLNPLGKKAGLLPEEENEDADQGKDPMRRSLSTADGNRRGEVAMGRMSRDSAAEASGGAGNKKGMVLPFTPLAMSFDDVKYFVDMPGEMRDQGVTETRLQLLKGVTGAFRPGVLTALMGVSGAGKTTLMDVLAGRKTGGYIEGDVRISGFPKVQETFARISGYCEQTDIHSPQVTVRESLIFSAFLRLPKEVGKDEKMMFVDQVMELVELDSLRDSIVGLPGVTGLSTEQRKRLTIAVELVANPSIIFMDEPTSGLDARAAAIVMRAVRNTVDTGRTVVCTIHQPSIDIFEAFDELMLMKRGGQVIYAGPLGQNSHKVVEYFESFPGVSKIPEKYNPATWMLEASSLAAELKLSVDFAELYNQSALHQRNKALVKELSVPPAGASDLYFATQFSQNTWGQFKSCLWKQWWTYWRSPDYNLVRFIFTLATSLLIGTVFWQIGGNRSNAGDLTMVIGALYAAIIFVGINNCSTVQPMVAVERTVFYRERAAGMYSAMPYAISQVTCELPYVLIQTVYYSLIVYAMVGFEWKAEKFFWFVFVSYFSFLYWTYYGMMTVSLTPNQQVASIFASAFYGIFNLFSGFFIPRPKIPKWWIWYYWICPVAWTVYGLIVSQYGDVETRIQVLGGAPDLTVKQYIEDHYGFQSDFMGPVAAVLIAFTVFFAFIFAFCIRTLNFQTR
Briefly: radiolabel export from transfected N. benthamiana protoplasts. To be noted: labelled compound; export 25 °C, 15 min.

Test [2] addresses T2, ABCG36/PDR8/PEN3 (Arabidopsis thaliana, UniProt Q9XIE2, L704F).
T2 construct: full length, 35S:ABCG36-GFP (GFP tag kept), Agrobacterium-transfected Nicotiana benthamiana mesophyll protoplasts or microsomes; full-size PDR-type ABC transporter
T2 sequence (Q9XIE2 1-1469 L704F): T1 sequence (Q9XIE2 1-1469 L704S) with S704F
Briefly: radiolabel export from transfected N. benthamiana protoplasts; also stimulates ATPase in microsomes. Particulars: labelled compound; export 25 °C, 15 min; ATPase with 50 μM compound at pH 9.0.

The target of test [3] is T3, ABCG36/PDR8/PEN3 (Arabidopsis thaliana, UniProt Q9XIE2).
T3 construct: full length, 35S:ABCG36-GFP (GFP tag kept), Agrobacterium-transfected Nicotiana benthamiana mesophyll protoplasts or microsomes; full-size PDR-type ABC transporter
T3 sequence (Q9XIE2 1-1469): T1 sequence (Q9XIE2 1-1469 L704S) with S704L
Description: radiolabel export from transfected N. benthamiana protoplasts; also stimulates ATPase in microsomes; specific binding to Arabidopsis microsomes. To be noted: labelled compound; export 25 °C, 15 min; ATPase with 50 μM compound at pH 9.0; binding at 10 nM.

In the case of `O=C(O)Cc1c[nH]c2ccccc12` [IAA], in test [1], the “radiolabel export from transfected N. benthamiana protoplasts” value is “gain-of-IAA transport for polar but uncharged serine”.
As to `O=C(O)CCCc1c[nH]c2ccccc12` [IBA, indole-3-butyric acid], the “radiolabel export from transfected N. benthamiana protoplasts; also stimulates A” value in test [2] is “the L704F (abcg36-5) variant had no effect on ABCG36-mediated IBA export”; in test [3], “stimulated by its substrates (IBA and CLX) but not by non-transported indolic compounds”.
For the molecule `c1ccc2c(-c3nccs3)c[nH]c2c1` [CLX, 3-thiazol-2-yl-indole], the “radiolabel export from transfected N. benthamiana protoplasts; also stimulates A” value in test [3] is “stimulated by its substrates (IBA and CLX) but not by non-transported indolic compounds”.
